Laboratory results reported in paper PMC11672801, “Synthesis of Temporin-SHa Retro Analogs with Lysine Addition/Substitution and Antibiotic Conjugation to Enhance Antibacterial, Antifungal, and Anticancer Activities” (Antibiotics, 2024).
Values after ≈ are worked out from the molar mass of the structure shown. Like-named read-outs stand apart in the source and are kept apart here. Where a SMILES comes first, the peptide text is derived from it. [ ]: non-standard residue; d: D form. The star is where a group is joined. Levofloxacinoyl = C[C@H]1COc2c(N3CCN(C)CC3)c(F)cc3c(=O)c(C(=O)*)cn1c23; βAla = NCCC(=O)O

Legend:
[1] = tested on: B. subtilis (ATCC 23857); test: Antibacterial broth microdilution MIC assay; type: cell-based, Bacillus subtilis; settings: >99% inhibition of growth, MH broth, 20-22 h, 37 °C
Experimental: (§1) The antibacterial activity of peptide analogs was tested against different bacterial strains, i.e., Salmonella enterica subsp. enterica serotype Typhimurium or Salmonella typhi (ATCC 14028), Staphylococcus aureus (NCTC 13277), Bacillus subtilis (ATCC 23857), Escherichia coli (ATCC 25922), and Pseudomonas aeruginosa (ATCC 10145). These strains were obtained from the microbial bank of Dr. Panjwani Center for Molecular Medicine and Drug research (PCMD), International Center for Chemical and Biological Sciences (ICCBS), University of Karachi. Colonies of these bacterial strains were grown in respective agar media, then inoculated in Mueller Hinton (MH) broth (Oxoid, UK) and incubated at 37 °C overnight. The peptide solutions were first diluted 1 in 100 (from the stock solution at 20 mM) and then further two-fold dilution in MH broth in a sterile 96-well plate was performed, resulting in 100 µL of broth containing increasing concentrations of analogs. Bacteria in their exponential growth phase were diluted in MH broth, and 100 µL of this suspension was added in each well. […] Then, these plates were incubated at 37 °C for 20–22 h. MIC (Minimum Inhibitory Concentration) values were determined as the concentrations of peptides causing >99% inhibition of bacterial growth.

[2] = tested on: E. coli (ATCC 25922); test: Antibacterial broth microdilution MIC assay; type: cell-based, Escherichia coli; settings: >99% inhibition of growth, MH broth, 20-22 h, 37 °C
Experimental: as §1

[3] = tested on: P. aeruginosa (ATCC 10145); test: Antibacterial broth microdilution MIC assay; type: cell-based, Pseudomonas aeruginosa; settings: >99% inhibition of growth, MH broth, 20-22 h, 37 °C
Experimental: as §1

[4] = tested on: C. albicans (ATCC 36082); test: microbe, parasite or virus in culture
Experimental: Candida albicans (ATCC 36082) was cultured on Sabourad Dextrose Agar (SDA). A single colony was inoculated in Sabouraud Dextrose Broth (SDB) medium and grown overnight at 37 °C while shaking. The next day, the susceptibility of C. albicans was tested using a broth microdilution assay. Peptide analogs were diluted in SDB media by two-fold dilution, resulting in 100 µL of medium containing increasing concentrations of analogs. The overnight culture (turbidity at OD600 = 1) was 1000× diluted in SDB. Then 100 µL of this suspension was added to each well, resulting in a final 200 µL suspension containing 2–4 × 10^5 CFU/mL. The plate was incubated at 37 °C for 24 h. The next day, MIC (Minimum Inhibitory Concentration) values were determined as the concentrations of peptides causing > 99% inhibition of yeast growth.

[5] = tested on: Human breast cancer (MCF-7) cells; test: cells; type: cell-based
Experimental: (§2) Human breast cancer (MCF-7) and human cervical cancer (HeLa) cells were obtained from the cell culture bank of PCMD in ICCBS, University of Karachi. These cells were maintained in Dulbecco’s Modified Eagle Medium (DMEM), supplemented with 10% fetal bovine serum, and incubated at 37 °C and 5% CO2. The antiproliferative activity of the samples was determined by a MTT assay. Briefly, the cells were washed with PBS and trypsinized. After determination of the cell number using Malassez cell counting, 100 µL of the cell suspension were seeded in a 96-well plate at the density of 6000 cells/well and incubated at 37 °C and 5% CO2. After 24 h, the cells were treated with increasing concentrations of analogs. The next day, media was removed and 200 µL of MTT dye (0.5 mg/mL) was added in each well and incubated for 3 h at 37 °C in 5% CO2 incubator. Then, the media was removed and 100 µL of DMSO was added to solubilize formazan crystals. After one minute of shaking, the absorbance was recorded at 540 nm in microplate reader (Multiskan GO, ThermoScientific, Waltham, MA, USA). Finally, the percent inhibition of proliferation was calculated using the following formula: % inhibition of proliferation=O.D of treated well−O.D of media control/O.D of untreated control−O.D of media control×100

[6] = tested on: human cervical cancer (HeLa) cells; test: cells; type: cell-based; settings: 24 h
Experimental: as §2

[7] = tested on: human red blood cells (RBC); test: Hemolytic assay; type: cell-based
Experimental: For the hemolytic assay, fresh human blood (2 mL) was obtained from a healthy donor in EDTA tube while following the protocol of approval from the Independent Ethics Committee of ICCBS (approval number ICCBS/IEC-047-HB-2019/Protocol/1.0). The blood was centrifuged and upper supernatant plasma was removed. The cell pellets were washed with sterile PBS three times. The washed blood cells were then diluted 25 times to make 4% concentration of the initial blood cells. Red blood cells (500 µL) were treated with increasing concentrations of analogs, with triton X-100 at 0.1% being used as positive control giving 100% hemolysis. After 1 h of incubation at 37 °C, tubes were centrifuged at 800 rpm for 5 min to pellet down red blood cells. After centrifugation, 200 µL of supernatant were transferred into a 96 well plate and the absorbance was recorded at 576 nm using a microplate reader (MultiSkan Go, ThermoScientific). Then, the following formula was applied to calculate percent hemolysis: % Hemolysis=O.D of test sample−O.D of PBS control/O.D of Tritox×positive control−O.D of PBS control×100

[8] = Circular dichroism secondary structure analysis (Bestsel) in 20 mM SDS; type: physicochemical; settings: CD, 15 µM peptide in 20 mM SDS, 22 °C
Experimental: The far-ultraviolet circular dichroism (CD) spectra were recorded using a JASCO J-810 spectropolarimeter (Jasco, Tokyo, Japan), with measurements taken in a quartz cuvette with a 10 mm path length. The temperature was kept at 22 °C, and the instrument was calibrated with D-(+)-10-camphorsulfonic acid. Peptides were dissolved in 20 mM SDS to a final concentration of 15 µM. The CD spectra were collected over a wavelength range of 190 to 260 nm with a bandwidth of 2 nm. Each spectrum was recorded with ten consecutive scans at a rate of 50 nm/min, and the baseline was obtained under identical conditions. Secondary structures, i.e., the percentage of alpha-helix and other secondary structures, were quantified from CD data using Bestsel software (https://bestsel.elte.hu/index.php, accessed on 22 October 2024).

[9] = tested on: S. aureus (NCTC 13277); settings: >99% inhibition of growth, MH broth, 20-22 h, 37 °C
[10] = tested on: S. typhi (ATCC 14028)
[11] = MTT, 24 h exposure, read-out: IC50 on Breast Cancer (MCF-7)
[12] = >99% inhibition of growth, MH broth, 20-22 h, 37 °C
[13] = >99% inhibition of yeast growth, SDB, 24 h, 37 °C

| SMILES | MIC [1] [µM] | MIC [2] [µM] | MIC [3] [µM] | MIC C. albicans (ATCC 36082) ([4]; ATCC 36082, 24 h) [µM] | IC50 [5, 11] [µM] | IC50 [6] [µM] | HC50 on Human Red Blood Cells (RBCs) [7] [µM] | Antiparallel (%) [8] [%] | Helix (%) [8] [%] | Others (%) [8] [%] | Parallel (%) [8] [%] | Turn (%) [8] [%] | MIC S. aureus (NCTC 13277) [9] [µM] | MIC S. typhi (ATCC 14028) [10, 12] [µM] | MIC C. albicans (ATCC 36082) [4, 13] [µM] | HC50 on Human Red Blood Cells (RBCs) ([7]; red cells of human, 1 h) [µM] | IC50 ([5]; 24 h) [µM] | MIC S. typhi (ATCC 14028) ([10]; ATCC 14028) [µM] |
| --- | --- | --- | --- | --- | --- | --- | --- | --- | --- | --- | --- | --- | --- | --- | --- | --- | --- | --- |
| CC[C@H](C)[C@H](NC(=O)[C@@H](NC(=O)CNC(=O)[C@H](CCSC)NC(=O)[C@H](CC(C)C)NC(=O)[C@H](CCCCN)NC(=O)[C@H](CCCCN)NC(=O)[C@H](CC(C)C)NC(=O)[C@@H](N)Cc1ccccc1)C(C)C)C(=O)N[C@H](C)C(=O)N[C@@H](CO)C(=O)N[C@@H](CC(C)C)C(=O)N[C@@H](Cc1ccccc1)C(N)=O [RSP-4 (7), H-Phe^1-Leu^2-Lys^3-Lys^4-Leu^5-Met^6-Gly^7-Val^8-Ile^9-D-Ala^10-Ser^11-Leu^12-Phe^13-NH2] (H-FLKKLMGVI[dA]SLF-NH2) | 12.5 (≈ 18.3 µg/mL) | 50 (≈ 73.3 µg/mL) | 200 (≈ 293 µg/mL) | 100 (≈ 147 µg/mL) | 39.9 | 56.9 | > 100 | 22.1 | 56.8 | 13.6 | 0.00 | 7.6 | 50 (≈ 73.3 µg/mL) | 100 (≈ 147 µg/mL) |  |  |  |  |
| CC[C@H](C)[C@H](NC(=O)[C@@H](NC(=O)CNC(=O)[C@H](CCSC)NC(=O)[C@H](CC(C)C)NC(=O)CNC(=O)[C@H](CCCCN)NC(=O)[C@H](CC(C)C)NC(=O)[C@@H](N)Cc1ccccc1)C(C)C)C(=O)N[C@H](C)C(=O)N[C@@H](CO)C(=O)N[C@@H](CC(C)C)C(=O)N[C@@H](Cc1ccccc1)C(N)=O [RNST-2 (2), H-Phe^1-Leu^2-Lys^3-Gly^4-Leu^5-Met^6-Gly^7-Val^8-Ile^9-D-Ala^10-Ser^11-Leu^12-Phe^13-NH2] (H-FLKGLMGVI[dA]SLF-NH2) | 1.56 (≈ 2.18 µg/mL) | 50 (≈ 69.7 µg/mL) | 200 (≈ 279 µg/mL) |  | 53 | 60 |  | 17.9 | 62 | 0.00 | 20.1 | 0.00 | 3.12 (≈ 4.35 µg/mL) | 50 (≈ 69.7 µg/mL) | 15.6 (≈ 21.8 µg/mL) | 13.8 |  |  |
| CC[C@H](C)[C@H](NC(=O)[C@@H](NC(=O)CNC(=O)[C@H](CCSC)NC(=O)[C@H](CC(C)C)NC(=O)[C@H](CCCCN)NC(=O)[C@H](CCCCN)NC(=O)[C@H](CC(C)C)NC(=O)[C@H](Cc1ccccc1)NC(=O)CCNC(=O)c1cn2c3c(c(N4CCN(C)CC4)c(F)cc3c1=O)OC[C@@H]2C)C(C)C)C(=O)N[C@H](C)C(=O)N[C@@H](CO)C(=O)N[C@@H](CC(C)C)C(=O)N[C@@H](Cc1ccccc1)C(N)=O [RLFP-4 (8), LF-β-Ala-Phe^1-Leu^2-Lys^3-Lys^4-Leu^5-Met^6-Gly^7-Val^8-Ile^9-D-Ala^10-Ser^11-Leu^12-Phe^13-NH2] ({Levofloxacinoyl-βAla}-FLKKLMGVI[dA]SLF-NH2) | 1.56 (≈ 2.93 µg/mL) | 25 (≈ 47 µg/mL) | 12.5 (≈ 23.5 µg/mL) | >200 |  | 15.5 |  |  |  |  |  |  | 6.25 (≈ 11.8 µg/mL) |  |  | 4.5 | 23.8 | 50 (≈ 94 µg/mL) |
| CC[C@H](C)[C@H](NC(=O)[C@@H](NC(=O)CNC(=O)[C@H](CCSC)NC(=O)[C@H](CC(C)C)NC(=O)CNC(=O)[C@H](CCCCN)NC(=O)[C@H](CC(C)C)NC(=O)[C@H](Cc1ccccc1)NC(=O)CCNC(=O)c1cn2c3c(c(N4CCN(C)CC4)c(F)cc3c1=O)OC[C@@H]2C)C(C)C)C(=O)N[C@H](C)C(=O)N[C@@H](CO)C(=O)N[C@@H](CC(C)C)C(=O)N[C@@H](Cc1ccccc1)C(=O)N[C@@H](CCCCN)C(N)=O [RLFP-3 (6), LF-β-Ala-Phe^1-Leu^2-Lys^3-Gly^4-Leu^5-Met^6-Gly^7-Val^8-Ile^9-D-Ala^10-Ser^11-Leu^12-Phe^13-Lys^14-NH2] ({Levofloxacinoyl-βAla}-FLKGLMGVI[dA]SLFK-NH2) | 1.56 (≈ 3.02 µg/mL) | 25 (≈ 48.4 µg/mL) | 12.5 (≈ 24.2 µg/mL) |  |  | 12.1 |  |  |  |  |  |  | 12.5 (≈ 24.2 µg/mL) |  | 3.12 (≈ 6.04 µg/mL) | 6.6 | 13.3 | 3.12 (≈ 6.04 µg/mL) |
